According to US20250197368A1 (priority 2020, published 2025):
Like-named read-outs stand apart in the source and are kept apart here.

Target: human α2β3γ2 GABAARs (benzodiazepine site) (Homo sapiens (Human), UniProt P18507+P47869)
Experiment: In vitro radioligand binding assay ([3H]Ro15-1788 displacement), α2-GABAAR Ki
Protocol: The affinity (Ki) of compounds for the benzodiazepine site of human recombinant GABAARs was measured by their ability to inhibit the binding of the selective benzodiazepine antagonist [^3H]Ro15-1788 ([^3H] flumazenil).
Mouse L(tk^−) cells stably expressing human α1β3γ2, α2β3γ2, α3β3γ2, α5β3γ2 GABAARs were generated by transfection of the individual subunits in the dexamethasone-inducible expression vector pMSGneo in mouse L(tk^−) cells (Hadingham et al., 1993, Mol. Pharmacol. 43:970-975 and 1993, Mol. Pharmacol. 44:1211-1218).
L(tk^−) cells stably expressing human α1β3γ2, α2β3γ2, α3β3γ2, α5β3γ2 GABAARs were maintained in DMEM F12 medium supplemented with 10% Foetal Bovine Serum, 1% Penicillin/Streptomycin and 1 mg/mL Geneticin G418 in an incubator at 37° C. with a humidified atmosphere with 5% CO2. Dexamethasone was added to the culture medium to induce GABAAR expression.
L(tk−) cells were harvested and membranes were prepared for each receptor combination in either TE buffer (10 mM Tris·CI/0.1 mM EDTA, pH 7.5) or phosphate buffer (K2PO4 10 mM, pH 7.0) (Hadingham et al. (1992) Proc. Natl. Acad. Sci. USA; 89 (14): 6378-82). Protein concentration, receptor expression and the Kd of [^3H]Ro15-1788 were determined before Ki value of the compounds were evaluated. For Kd evaluation, saturation binding curves were obtained by incubating membrane with various concentrations of [^3H]Ro15-1788 (82.5 Ci/mM), with nonspecific binding measured in the presence of 1-3 μM TP003.
For Ki evaluation, cell membranes were incubated with 4 nM [^3H]Ro15-1788 along with a range of concentrations of test compound. Nonspecific binding was determined using 1-3 μM TP003. All incubations were performed for 1 hour at 4° C. in assay buffer. The total assay volume was 0.5 mL, containing 40 μg/well α1β3γ2, 30 μg/well α2β3γ2, 40 μg/well α3β3γ2 and 30 μg/well for α5β3γ2 of membrane protein. Incubations were terminated by filtration and washing with ice cold Tris-HCl buffer (50 mM, pH=7.4) over Whatman GF/B filters and the radioactivity of the filters was measured using liquid scintillation counting.
The % inhibition of [^3H]Ro15-1788 binding was plotted as a function of compound concentration and the IC50 calculated. From the IC50, the affinity (Ki) was calculated using the method of Cheng and Prusoff using the Kd values obtained for [^3H]Ro15-1788.

[1] = L(tk-) cell membranes, 4 nM [3H]Ro15-1788, read-out: α2-GABAAR Ki

Sequence of human α2β3γ2 GABAARs (benzodiazepine site) (P47869 29-451): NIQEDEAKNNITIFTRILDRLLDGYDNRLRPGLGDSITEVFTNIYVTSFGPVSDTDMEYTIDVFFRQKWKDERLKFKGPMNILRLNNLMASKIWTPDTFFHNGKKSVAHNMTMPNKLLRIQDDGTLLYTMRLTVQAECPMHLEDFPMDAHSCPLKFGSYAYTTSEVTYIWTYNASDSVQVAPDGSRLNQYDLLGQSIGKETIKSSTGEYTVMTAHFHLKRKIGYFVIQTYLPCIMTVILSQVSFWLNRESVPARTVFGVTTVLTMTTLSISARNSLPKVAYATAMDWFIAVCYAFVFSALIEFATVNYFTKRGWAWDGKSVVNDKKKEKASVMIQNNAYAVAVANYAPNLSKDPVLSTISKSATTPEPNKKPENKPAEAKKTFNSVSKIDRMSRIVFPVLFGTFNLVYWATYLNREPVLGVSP
Sequence of human α2β3γ2 GABAARs (benzodiazepine site) (P28472 26-473 partner): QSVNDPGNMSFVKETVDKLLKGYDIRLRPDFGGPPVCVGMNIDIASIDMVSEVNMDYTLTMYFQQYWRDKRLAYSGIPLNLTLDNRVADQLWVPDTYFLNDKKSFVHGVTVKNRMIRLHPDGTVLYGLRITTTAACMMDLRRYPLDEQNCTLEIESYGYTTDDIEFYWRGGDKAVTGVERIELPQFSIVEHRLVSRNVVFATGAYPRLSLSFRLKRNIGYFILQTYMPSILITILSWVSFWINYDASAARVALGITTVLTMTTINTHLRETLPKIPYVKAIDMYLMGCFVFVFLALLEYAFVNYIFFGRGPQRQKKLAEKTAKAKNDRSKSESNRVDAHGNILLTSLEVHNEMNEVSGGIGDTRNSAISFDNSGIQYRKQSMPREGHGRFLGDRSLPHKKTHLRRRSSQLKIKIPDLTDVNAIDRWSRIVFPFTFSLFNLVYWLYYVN
Sequence of human α2β3γ2 GABAARs (benzodiazepine site) (P18507 40-475): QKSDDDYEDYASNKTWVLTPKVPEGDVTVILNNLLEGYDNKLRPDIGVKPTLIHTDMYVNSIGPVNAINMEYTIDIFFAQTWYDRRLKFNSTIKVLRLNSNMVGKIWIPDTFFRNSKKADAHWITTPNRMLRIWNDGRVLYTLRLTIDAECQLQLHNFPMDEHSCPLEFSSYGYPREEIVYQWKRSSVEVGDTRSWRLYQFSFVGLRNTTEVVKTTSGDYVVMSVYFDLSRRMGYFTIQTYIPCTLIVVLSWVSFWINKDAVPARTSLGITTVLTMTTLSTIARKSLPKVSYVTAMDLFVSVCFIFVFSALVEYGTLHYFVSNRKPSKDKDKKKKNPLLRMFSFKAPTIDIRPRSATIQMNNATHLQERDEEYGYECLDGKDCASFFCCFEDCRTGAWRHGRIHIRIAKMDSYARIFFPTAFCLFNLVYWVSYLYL

Row | SMILES | Ki [1] | Ki
1 | CNC(=O)c1c(N)c2cccc(-c3cnccc3OC)c2[nH]c1=O [Example 55, 4-Amino-8-(4-methoxy-3-pyridyl)-N-methyl-2-oxo-1H-quinoline-3-carboxamide] | 159 nM | 
2 | Nc1c(C(=O)NC2CC2)c(=O)[nH]c2c(-c3cnccc3OC(F)F)cccc12 [Example 70, 4-Amino-N-cyclopropyl-8-[4-(difluoromethoxy)-3-pyridyl]-2-oxo-1H-quinoline-3-carboxamide] | > 500 nM | 
3 | Cc1nn(C)cc1-c1cccc2c(N)c(C(=O)NCCC#N)c(=O)[nH]c12 [Example 74, 4-Amino-N-(2-cyanoethyl)-8-(1,3-dimethylpyrazol-4-yl)-2-oxo-1H-quinoline-3-carboxamide] | > 500 nM | 
4 | COc1ccncc1-c1cccc2c(N)c(C(=O)NCC(F)F)c(=O)[nH]c12 [Example 61, 4-Amino-N-(2,2-difluoroethyl)-8-(4-methoxy-3-pyridyl)-2-oxo-1H-quinoline-3-carboxamide] | 107 nM | 
5 | CCCNC(=O)c1c(N)c2ccnc(-c3cnccc3OC)c2[nH]c1=O [Example 84, 4-Amino-8-(4-methoxypyridin-3-yl)-2-oxo-N-propyl-1,2-dihydro-1,7-naphthyridine-3-carboxamide] |  | 75.5 nM
6 | COc1ccncc1-c1cccc2c(N)c(C(=O)NC3CC3)c(=O)[nH]c12 [Example 57, 4-Amino-N-cyclopropyl-8-(4-methoxy-3-pyridyl)-2-oxo-1H-quinoline-3-carboxamide] |  | 73.3 nM
7 | Cc1nn(C)cc1-c1cccc2c(N)c(C(=O)NCC3COC3)c(=O)[nH]c12 [Example 72, 4-Amino-8-(1,3-dimethyl-1H-pyrazol-4-yl)-N-(oxetan-3-ylmethyl)-2-oxo-1,2-dihydroquinoline-3-carboxamide] | > 500 nM | 
8 | COc1ccncc1-c1cccc2c(N)c(C(=O)NCCCO)c(=O)[nH]c12 [Example 66, 4-Amino-N-(3-hydroxypropyl)-8-(4-methoxy-3-pyridyl)-2-oxo-1H-quinoline-3-carboxamide] |  | 18.6 nM
9 | COc1ccncc1-c1cccc2c(N)c(C(=O)NC3COC3)c(=O)[nH]c12 [Example 58, 4-Amino-8-(4-methoxy-3-pyridyl)-N-(oxetan-3-yl)-2-oxo-1H-quinoline-3-carboxamide] | 154 nM | 
10 | Cc1nn(C)cc1-c1cccc2c(N)c(C(=O)NCCCN(C)C)c(=O)[nH]c12 [Example 75, 4-Amino-N-[3-(dimethylamino)propyl]-8-(1,3-dimethylpyrazol-4-yl)-2-oxo-1H-quinoline-3-carboxamide] | 171 nM | 
11 | COc1ccncc1-c1cccc2c(N)c(C(=O)NCC(C)(F)F)c(=O)[nH]c12 [Example 65, 4-Amino-N-(2,2-difluoropropyl)-8-(4-methoxy-3-pyridyl)-2-oxo-1H-quinoline-3-carboxamide] |  | 55.2 nM
12 | CCCNC(=O)c1c(N)c2cccc(-c3cnccc3OC)c2n(C)c1=O [Example 77, 4-Amino-8-(4-methoxy-3-pyridyl)-1-methyl-2-oxo-N-propyl-quinoline-3-carboxamide] |  | 2.77 nM
13 | COCCNC(=O)c1c(N)c2cccc(-c3cnccc3OC(F)F)c2[nH]c1=O [Example 71, 4-Amino-8-[4-(difluoromethoxy)-3-pyridyl]-N-(2-methoxyethyl)-2-oxo-1H-quinoline-3-carboxamide] | > 500 nM | 
